Laboratory results from patent publication US20230097753A1, “ALPHA-HYDROXYLATED FATTY-ACID METABOLITES, MEDICAL USES AND USE AS BIOMARKERS” (UNIVERSITAT DE LES ILLES BALEARS, priority 2020, published 2023).

Key:
5xFAD mice = assay: Radial arm maze test in 5xFAD model of Alzheimer's disease; format: in vivo, mouse; conditions: 20 mg/kg/day, 3 to 7 months of age
Description: FIG. 6. A, B and C: Chronic treatment with HPA acid or its prodrug, DHA-H, prevents cognitive decline typical of Alzheimer's disease in the murine transgenic model (5xFAD). Cognitive assessment was performed by the 8-arm Radial Labyrinth test. The animals received treatment between 3 and 7 months of age and the test was performed during the last month of treatment. During this test, the total errors made during the test (A), the reference memory errors (RME) (B) and the working memory errors (WME) (C) were taken into account. Each column represents the mean±SEM of errors during the last week of the radial labyrinth test. The black columns represent the errors made by WT mice. The blank columns represent the errors made by the 5xFAD transgenic mice treated with the vehicle (5% ethanol). Striped columns represent errors made by 5xFAD mice treated with DHA-H (20 mg/kg/day). Boxed columns represent errors made by 5xFAD mice treated with HPA (20 mg/kg/day). […] The bars represent the mean±standard error for each treatment condition and the statistical analysis was performed by unidirectional ANOVA and the Tukey multiple evaluation test: *p<0.05 when compared to healthy control (WT) and #p<0.05 when compared to 5xFAD control condition (treated with the vehicle). […]

MIA-PaCa 2 = assay: IC50 in tumor cell cultures (cell survival, XTT / trypan blue); format: cell-based; conditions: Homo sapiens; MIA-PaCa 2 pancreatic cancer cell line
Description: (§1) Cell survival was analyzed in a Barker chamber using trypan blue vital exclusion staining (Scharlab) or by cell proliferation kit II (Roche). Briefly, the cells were seeded in 96-well plates at a density of 3 x 10^3 cells per well 24 h prior to treatment, and then cultured in the presence or absence of compounds of interest at the concentrations and for the times indicated in the figures. After different times, plaque viable cells were determined by the addition of XTT according to the manufacturers instructions. Cells were incubated at 37° C. in 5% CO2 until a constant color was developed and absorbance was recorded at 495 nm using a microplate reader with a reference wavelength of 650 nm (FLUOstar Omega, BMG LABTECH, Germany).
(§2) The anti-tumor activity of the different metabolites described in FIGS. 8 and 9 was determined by direct treatment with these molecules (HDA or C17:2 ω-6, HTA ω-3 or C17:3 ω-3, HTA ω-6 or C17:3 ω-6, NTA or C19:4 ω-6, NPA or C19:5 ω-3, and HPA or C21:5 ω-3) in tumor cell cultures, on which the IC50 value for each of these compounds was determined (Inhibitory Concentration 50: concentration of study compound that induces death of 50% of the tumor cell population).

A549 = assay: as above; format: cell-based; conditions: A549 human lung adenocarcinoma cell line
Description: as §1, §2

| Structure (SMILES) | Cognition in 8-arm radial labyrinth test (total errors, RME, WME) (5xFAD mice) | IC50 (MIA-PaCa 2) [µM] | IC50 (A549) [µM] |
| --- | --- | --- | --- |
| CCC=CCC=CCC=CCC=CCC=CCC=CCC(O)C(=O)O (stereo not shown) [DHA-H, 2-hydroxy-drocosahexaenoic acid] | cognitive improvement | – | – |
| CC/C=C\C/C=C\C/C=C\C/C=C\C/C=C\CCCCC(=O)O [HPA, (6Z,9Z,12Z,15Z,18Z)-heneicosa-6,9,12,15,18-pentaenoic acid] | cognitive improvement | 58 ± 17 | 228 ± 3 |
